Data as given in patent US8785429B2, “Dihydropyrrolonaphthyridinone compounds as inhibitors of JAK” (Takeda Pharmaceutical Company Limited, priority 2009, dated 2014).

Legend:
[1] = target: T1, JAK2 (Homo sapiens, UniProt O60674); test: Assay for JAK2 Inhibition (phosphorylation of FAM-labeled substrate, Caliper LC-3000); format: biochemical; conditions: −log10(IC50), IC50 is the molar concentration at 50% inhibition; read-out: JAK2 pIC50 (converted)
T1 construct: purchased Invitrogen
Description: (§1) A compound's ability to inhibit JAK activity may be assessed using a variety of methods, including in vitro and in vivo assays. The following in vitro assays measure a test compound's ability to inhibit JAK2- and JAK3-mediated phosphorylation of FAM-labeled JAK-specific substrates.
(§2) Purified JAK2 and JAK3 proteins were purchased from Invitrogen. JAK2 and JAK3 inhibition is determined using a black 384-well-plate format in buffer containing 50 mM HEPES, 10 mM NaCl, 10 mM MgCl2, 0.2 mM EDTA, 0.01% EDA (Brij® 35), 1 mM DTT, 0.1 mg/mL BSA at pH 7.3. Each test compound is prepared in DMSO using 2-fold serial dilutions for 11 data points and is added to the buffer so that each dilution contains 3% DMSO.
(§3) To each well is added 2 μL of 3 μM 5FAM-KKKKEEIYFFFG-NH2 and 45 μM ATP (in buffer), 2 μL of diluted test compound (3% DMSO in medium), and 2 μL of 0.6 nM JAK2 in buffer. The reaction mixture is incubated at room temperature for 60 min and is quenched by adding 50 mM HEPeX, 30 mM EDTA, and 0.1% Tx-100 (pH 7.3). To quantify the fluorescent-labeled substrate and product following reaction, the test plate is loaded on a Caliper LC-3000, which measures percent of conversion by microfluidic-based separation.
(§4) Corresponding IC50 values are calculated by non-linear curve fitting of the compound concentrations and percent of inhibition to the standard IC50 equation.

[2] = target: T2, JAK3 (Homo sapiens, UniProt P52333); test: Assay for JAK3 Inhibition (phosphorylation of FAM-labeled substrate, Caliper LC-3000); format: biochemical; conditions: −log10(IC50), IC50 is the molar concentration at 50% inhibition; read-out: JAK3 pIC50 (converted)
T2 construct: purchased Invitrogen
T2 sequence (P52333 1-1124): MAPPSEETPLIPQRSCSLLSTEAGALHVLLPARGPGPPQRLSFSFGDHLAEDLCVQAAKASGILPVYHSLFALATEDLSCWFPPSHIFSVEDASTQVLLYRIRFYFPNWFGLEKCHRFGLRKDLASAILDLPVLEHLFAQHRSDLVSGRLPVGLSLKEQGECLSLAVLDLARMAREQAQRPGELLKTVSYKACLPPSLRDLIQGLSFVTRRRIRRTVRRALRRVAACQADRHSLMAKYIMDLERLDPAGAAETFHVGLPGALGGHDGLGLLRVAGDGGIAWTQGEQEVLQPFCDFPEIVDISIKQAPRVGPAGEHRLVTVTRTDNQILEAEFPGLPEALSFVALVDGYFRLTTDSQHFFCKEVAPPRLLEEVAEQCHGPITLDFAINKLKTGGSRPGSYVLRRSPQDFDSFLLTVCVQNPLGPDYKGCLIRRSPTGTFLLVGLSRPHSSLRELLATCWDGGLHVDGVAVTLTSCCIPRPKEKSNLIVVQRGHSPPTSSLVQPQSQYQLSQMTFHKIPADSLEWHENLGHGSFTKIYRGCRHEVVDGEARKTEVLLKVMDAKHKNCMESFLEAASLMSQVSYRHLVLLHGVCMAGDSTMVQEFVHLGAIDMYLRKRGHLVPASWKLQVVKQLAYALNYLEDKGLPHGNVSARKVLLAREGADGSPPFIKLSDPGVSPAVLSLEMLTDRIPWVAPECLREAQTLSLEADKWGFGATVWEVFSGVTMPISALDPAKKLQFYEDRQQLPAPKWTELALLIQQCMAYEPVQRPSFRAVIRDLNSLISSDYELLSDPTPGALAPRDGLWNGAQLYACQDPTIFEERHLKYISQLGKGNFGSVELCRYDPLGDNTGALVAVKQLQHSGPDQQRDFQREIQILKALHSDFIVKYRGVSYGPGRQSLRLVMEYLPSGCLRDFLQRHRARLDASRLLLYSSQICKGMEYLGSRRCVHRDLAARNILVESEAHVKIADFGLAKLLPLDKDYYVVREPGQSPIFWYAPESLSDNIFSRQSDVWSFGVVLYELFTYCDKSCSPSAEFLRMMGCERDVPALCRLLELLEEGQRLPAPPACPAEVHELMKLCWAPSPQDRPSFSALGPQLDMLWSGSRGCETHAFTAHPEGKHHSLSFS
Description: as §1, §2
as §3, with “15” for “45”, “1.2” for “0.6”, “JAK3” for “JAK2”, “HEPES,” for “HEPeX,”
as §4

T1 sequence (O60674 whole entry): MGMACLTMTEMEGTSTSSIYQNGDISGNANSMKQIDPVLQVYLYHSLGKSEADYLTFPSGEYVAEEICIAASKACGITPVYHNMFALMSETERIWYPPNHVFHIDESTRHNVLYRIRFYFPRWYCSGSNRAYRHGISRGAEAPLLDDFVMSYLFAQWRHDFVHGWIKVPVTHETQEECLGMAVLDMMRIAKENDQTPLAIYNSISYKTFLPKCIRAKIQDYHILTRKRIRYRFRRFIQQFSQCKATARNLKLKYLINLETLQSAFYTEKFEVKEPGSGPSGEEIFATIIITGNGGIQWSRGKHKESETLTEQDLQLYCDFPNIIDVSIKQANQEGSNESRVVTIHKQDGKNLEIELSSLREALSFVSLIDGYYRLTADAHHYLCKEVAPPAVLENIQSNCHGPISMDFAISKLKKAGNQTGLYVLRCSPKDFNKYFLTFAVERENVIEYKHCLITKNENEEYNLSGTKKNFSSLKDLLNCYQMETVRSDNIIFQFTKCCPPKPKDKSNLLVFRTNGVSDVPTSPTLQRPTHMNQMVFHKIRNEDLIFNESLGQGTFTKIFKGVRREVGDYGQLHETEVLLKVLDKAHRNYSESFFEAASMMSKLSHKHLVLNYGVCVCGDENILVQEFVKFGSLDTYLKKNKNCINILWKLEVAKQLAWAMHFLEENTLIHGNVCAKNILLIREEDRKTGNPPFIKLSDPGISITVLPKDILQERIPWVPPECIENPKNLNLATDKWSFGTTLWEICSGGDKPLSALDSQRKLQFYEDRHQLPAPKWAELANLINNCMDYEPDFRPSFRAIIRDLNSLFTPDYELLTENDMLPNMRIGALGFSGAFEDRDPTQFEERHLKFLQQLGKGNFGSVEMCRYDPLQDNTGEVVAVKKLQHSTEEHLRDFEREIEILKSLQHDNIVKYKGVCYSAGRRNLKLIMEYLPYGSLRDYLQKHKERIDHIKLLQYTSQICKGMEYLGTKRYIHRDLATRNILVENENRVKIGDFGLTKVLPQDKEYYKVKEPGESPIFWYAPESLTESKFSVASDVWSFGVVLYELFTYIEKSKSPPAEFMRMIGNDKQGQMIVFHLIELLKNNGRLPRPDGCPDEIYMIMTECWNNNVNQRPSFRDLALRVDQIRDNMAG

| SMILES | IC50 [1] [µM] | IC50 [2] [µM] |
| --- | --- | --- |
| CC(C)[C@H](C(=O)NC1CCCC1)N1Cc2ccnc3[nH]cc(c23)C1=O [Example 22, (R)—N-cyclopentyl-3-methyl-2-(3-oxopyrrolo[4,3,2-de][2,6]naphthyridin-4(1H,3H,5H)-yl)butanamide] | 0.631 | 0.0316 |
| CC[C@@H](C)[C@H](C(=O)NC1CCCC1)N1Cc2ccnc3[nH]cc(c23)C1=O [Example 23, (2R,3R)—N-cyclopentyl-3-methyl-2-(3-oxopyrrolo[4,3,2-de][2,6]naphthyridin-4(1H,3H,5H)-yl)pentanamide] | 3.98 | 0.398 |
| CC[C@H](C)[C@H](C(=O)NC1CCCC1)N1Cc2ccnc3[nH]cc(c23)C1=O [Example 24, (2R,3S)—N-cyclopentyl-3-methyl-2-(3-oxopyrrolo[4,3,2-de][2,6]naphthyridin-4(1H,3H,5H)-yl)pentanamide] | 12.6 | 1.58 |
| O=C(NC1CCCC1)[C@@H](C1CC1)N1Cc2ccnc3[nH]cc(c23)C1=O [Example 25, (R)—N-cyclopentyl-2-cyclopropyl-2-(3-oxopyrrolo[4,3,2-de][2,6]naphthyridin-4(1H,3H,5H)-yl)acetamide] | 1.58 | 0.2 |
| CC(C)(C)[C@H](C(=O)NC1CCCC1)N1Cc2ccnc3[nH]cc(c23)C1=O [Example 26, (R)—N-cyclopentyl-3,3-dimethyl-2-(3-oxopyrrolo[4,3,2-de][2,6]naphthyridin-4(1H,3H,5H)-yl)butanamide] | 0.126 | 0.01 |
| O=C(NC1CCCC1)[C@@H](C1CCCC1)N1Cc2ccnc3[nH]cc(c23)C1=O [Example 27, (R)—N,2-dicyclopentyl-2-(3-oxopyrrolo[4,3,2-de][2,6]naphthyridin-4(1H,3H,5H)-yl)acetamide] | 3.16 | 0.251 |
| O=C(NC1CCCC1)[C@@H](CC(F)(F)F)N1Cc2ccnc3[nH]cc(c23)C1=O [Example 28, (R)—N-cyclopentyl-4,4,4-trifluoro-2-(3-oxopyrrolo[4,3,2-de][2,6]naphthyridin-4(1H,3H,5H)-yl)butanamide] | 10 | 0.398 |
| CC(C)(O)[C@H](C(=O)NC1CCCC1)N1Cc2ccnc3[nH]cc(c23)C1=O [Example 29, (R)—N-cyclopentyl-3-hydroxy-3-methyl-2-(3-oxopyrrolo[4,3,2-de][2,6]naphthyridin-4(1H,3H,5H)-yl)butanamide] | 3.16 | 0.158 |
| N#CC[C@H](C(=O)NC1CCCC1)N1Cc2c(Cl)cnc3[nH]cc(c23)C1=O [Example 30, (R)-2-(6-chloro-3-oxopyrrolo[4,3,2-de][2,6]naphthyridin-4(1H,3H,5H)-yl)-3-cyano-N-cyclopentylpropanamide] | 3.16 | 1.26 |
| O=C1c2c[nH]c3nccc(c23)CN1C1(C(=O)NC2CCCC2)CCCC1 [Example 31, N-cyclopentyl-1-(3-oxopyrrolo[4,3,2-de][2,6]naphthyridin-4(1H,3H,5H)-yl)cyclopentanecarboxamide] | 20 | 20 |
| CC(C)[C@H](C(=O)NCC#N)N1Cc2c(Cl)cnc3[nH]cc(c23)C1=O [Example 32, (R)-2-(6-chloro-3-oxopyrrolo[4,3,2-de][2,6]naphthyridin-4(1H,3H,5H)-yl)-N-(cyanomethyl)-3-methylbutanamide] | 0.2 | 0.01 |
| CC(C)[C@H](C(=O)N1CCC(C#N)C1)N1Cc2c(Cl)cnc3[nH]cc(c23)C1=O (stereo partly drawn) [Example 33, 1-((R)-2-(6-chloro-3-oxopyrrolo[4,3,2-de][2,6]naphthyridin-4(1H,3H,5H)-yl)-3-methylbutanoyl)pyrrolidine-3-carbonitrile] | 0.794 | 0.0398 |
| CC(C)[C@H](C(=O)N1CCC(C#N)CC1)N1Cc2c(Cl)cnc3[nH]cc(c23)C1=O [Example 34, (R)-1-(2-(6-chloro-3-oxopyrrolo[4,3,2-de][2,6]naphthyridin-4(1H,3H,5H)-yl)-3-methylbutanoyl)piperidine-4-carbonitrile] | 0.251 | 0.0158 |
| CC(C)[C@H](C(=O)Nc1ccc(C#N)cc1)N1Cc2c(Cl)cnc3[nH]cc(c23)C1=O [Example 35, (R)-2-(6-chloro-3-oxopyrrolo[4,3,2-de][2,6]naphthyridin-4(1H,3H,5H)-yl)-N-(4-cyanophenyl)-3-methylbutanamide] | 2.51 | 0.316 |
| CC(C)[C@H](C(=O)Nc1cccc(C#N)c1)N1Cc2c(Cl)cnc3[nH]cc(c23)C1=O [Example 36, (R)-2-(6-chloro-3-oxopyrrolo[4,3,2-de][2,6]naphthyridin-4(1H,3H,5H)-yl)-N-(3-cyanophenyl)-3-methylbutanamide] | 1 | 0.126 |
| CC[C@@H](CC#N)NC(=O)[C@@H](C(C)C)N1Cc2c(Cl)cnc3[nH]cc(c23)C1=O [Example 37, (R)-2-(6-chloro-3-oxopyrrolo[4,3,2-de][2,6]naphthyridin-4(1H,3H,5H)-yl)-N—((S)-1-cyanobutan-2-yl)-3-methylbutanamide] | 1.58 | 0.0631 |
| CC[C@H](CC#N)NC(=O)[C@@H](C(C)C)N1Cc2c(Cl)cnc3[nH]cc(c23)C1=O [Example 38, (R)-2-(6-chloro-3-oxopyrrolo[4,3,2-de][2,6]naphthyridin-4(1H,3H,5H)-yl)-N—((R)-1-cyanobutan-2-yl)-3-methylbutanamide] | 1 | 0.0316 |
| CC(C)[C@H](C(=O)N1CC(C#N)C1)N1Cc2c(Cl)cnc3[nH]cc(c23)C1=O [Example 39, (R)-1-(2-(6-chloro-3-oxopyrrolo[4,3,2-de][2,6]naphthyridin-4(1H,3H,5H)-yl)-3-methylbutanoyl)azetidine-3-carbonitrile] | 0.0316 | 0.002 |
| CC(C)(C)[C@H](C(=O)NCCC#N)N1Cc2c(Cl)cnc3[nH]cc(c23)C1=O [Example 40, (R)-2-(6-chloro-3-oxopyrrolo[4,3,2-de][2,6]naphthyridin-4(1H,3H,5H)-yl)-N-(2-cyanoethyl)-3,3-dimethylbutanamide] | 1.26 | 0.0501 |
| CC(C)(C)[C@H](C(=O)N1CC(C#N)C1)N1Cc2c(Cl)cnc3[nH]cc(c23)C1=O [Example 41, (R)-1-(2-(6-chloro-3-oxopyrrolo[4,3,2-de][2,6]naphthyridin-4(1H,3H,5H)-yl)-3,3-dimethylbutanoyl)azetidine-3-carbonitrile] | 0.0501 | 0.00398 |
| CC(C)[C@H](C(=O)N1CC(C#N)C1)N1Cc2c(F)cnc3[nH]cc(c23)C1=O [Example 42, (R)-1-(2-(6-fluoro-3-oxopyrrolo[4,3,2-de][2,6]naphthyridin-4(1H,3H,5H)-yl)-3-methylbutanoyl)azetidine-3-carbonitrile] | 0.126 | 0.00631 |
| CC(C)[C@H](C(=O)N(C)CCC#N)N1Cc2c(F)cnc3[nH]cc(c23)C1=O [Example 43] | 12.6 | 0.794 |
